Key:
Breast Cancer subpanel = test: cells
Experimental: (§1) At the first stage of biological activity study, the antitumor activity screening of the selected compounds 2b, 2c, 2f, 2h, and 2j was performed according to the NCI DTP (USA) standard protocol at the concentrations ranging from 10^−4 to 10^−8 M toward 60 tumor cell lines. The percentage of growth was evaluated spectrophotometrically versus controls not treated with test agents after 48 h exposure and using SRB protein assay to estimate cell viability or growth. Dose–response parameters were calculated for each cell line: GI50—molar concentration of the compound that inhibits 50% net cell growth; TGI—molar concentration of the compound leading to the total inhibition; and LC50—molar concentration of the compound leading to 50% net cell death. Furthermore, mean graph midpoints (MG_MID) were calculated for each of the parameters, giving an average activity parameter over all cell lines for the tested compound. For the MG_MID calculation, insensitive cell lines were included with the highest concentration tested.
(§2) The selectivity index (SI) obtained by dividing the full panel MG-MID (mM) of the tested compound by their individual subpanel MG-MID (mM) was considered as a measure of selectivity of anticancer activity (Table 3).
(§3) Primary anticancer assay was performed on a panel of approximately sixty human tumor cell lines derived from nine neoplastic diseases, in accordance with the protocol of the Drug Evaluation Branch, National Cancer Institute, Bethesda. Tested compounds were added to the culture at a single concentration (10^−5 M) and the cultures were incubated for 48 h. End point determinations were made with a protein binding dye, sulforhodamine B (SRB). […] The percentage growth was evaluated spectrophotometrically versus controls not treated with test agents.
(§4) Dose–response parameters (GI50, TGI, LC50) were calculated for each compound. […] The drug concentration resulting in total growth inhibition (TGI) was calculated from Ti = Tz. The LC50 (concentration of drug resulting in a 50% reduction in the measured protein at the end of the drug treatment as compared to that at the beginning) indicating a net loss of cells following treatment was calculated from [(Ti − Tz)/Tz] × 100 = −50 (2). Values were calculated for each of these parameters if the level of activity was reached; however, if the effect was not reached or was excessive, the value for that parameter was expressed as more or less than the maximum or minimum concentration tested.

CNS Cancer subpanel = test: cells
Experimental: as §1, §2, §3, §4

Colon Cancer subpanel = test: cells
Experimental: as §1, §2, §3, §4

Leukemia subpanel = test: cells
Experimental: as §1, §2, §3, §4

Melanoma subpanel = test: cells
Experimental: as §1, §2, §3, §4

[1] = tested on: Non-Small Cell Lung Cancer subpanel; test: cells
Experimental: as §1, §2, §3, §4

Ovarian Cancer subpanel = test: cells
Experimental: as §1, §2, §3, §4

Prostate Cancer subpanel = test: cells
Experimental: as §1, §2, §3, §4

Renal Cancer subpanel = test: cells
Experimental: as §1, §2, §3, §4

EKVX = test: cells; details: Homo sapiens, 48 h
HOP-62 = test: cells; details: Homo sapiens, HOP-62, 48 h
LOX IMVI = test: cells; details: Homo sapiens, 48 h
HT-29 = test: NCI DTP 60 cell line screen, SRB
M14 = test: NCI DTP 60 cell line screen, SRB
OVCAR-4 = test: NCI DTP 60 cell line screen, SRB
NCI/ADR-Res = test: NCI DTP 60 cell line screen, SRB; details: 48 h
[2] = Homo sapiens, read-out: MG_MID, GI50
[3] = Homo sapiens, read-out: MG_MID, LC50
[4] = full panel MG_MID / Breast Cancer subpanel MG_MID
[5] = full panel MG_MID / CNS Cancer subpanel MG_MID
[6] = full panel MG_MID / Colon Cancer subpanel MG_MID
[7] = full panel MG_MID / Leukemia subpanel MG_MID
[8] = full panel MG_MID / Melanoma subpanel MG_MID
[9] = full panel MG_MID / Non-Small Cell Lung Cancer subpanel MG_MID
[10] = full panel MG_MID / Ovarian Cancer subpanel MG_MID
[11] = full panel MG_MID / Prostate Cancer subpanel MG_MID
[12] = full panel MG_MID / Renal Cancer subpanel MG_MID

## O=C1/C(=C/C(Cl)=C/c2ccc([N+](=O)[O-])cc2)SC(=S)N1c1ccc(O)cc1 [Compound 2f, 5-[(Z,2Z)-2-Chloro-3-(4-nitrophenyl)-2-propenylidene]-3-(4-hydroxyphenyl)-2-thioxo-4-thiazolidinone]
Breast Cancer subpanel; Breast Cancer panel mean
  MG_MID, TGI: 11.6 µM
Breast Cancer subpanel; [2]
  GI50: 1.89 µM
Breast Cancer subpanel; [3]
  CC50: 98.7 µM
Breast Cancer subpanel; [4]
  SI (selectivity index), GI50: 1.48
  SI (selectivity index), LC50: 0.82
  SI (selectivity index), TGI: 2.78
CNS Cancer subpanel; CNS Cancer panel mean
  MG_MID, TGI: 30.6 µM
CNS Cancer subpanel; [2]
  GI50: 6.72 µM
CNS Cancer subpanel; [3]
  CC50: 77.4 µM
CNS Cancer subpanel; [5]
  SI (selectivity index), GI50: 0.42
  SI (selectivity index), LC50: 1.04
  SI (selectivity index), TGI: 1.05
Colon Cancer subpanel; Colon Cancer panel mean
  MG_MID, TGI: 67.4 µM
Colon Cancer subpanel; [2]
  GI50: 1.84 µM
Colon Cancer subpanel; [3]
  CC50: 84.5 µM
Colon Cancer subpanel; [6]
  SI (selectivity index), GI50: 1.52
  SI (selectivity index), LC50: 0.96
  SI (selectivity index), TGI: 0.48
Leukemia subpanel; GI50 (normal blood lymphocyte)/GI50 (Leukemia Panel)
  TI (Therapeutic Index): >353.36
Leukemia subpanel; [2]
  GI50: 0.283 µM
Leukemia subpanel; [3]
  CC50: > 100 µM
Leukemia subpanel; Leukemia panel mean
  MG_MID, TGI: 41.0 µM
Leukemia subpanel; [7]
  SI (selectivity index), GI50: 9.89
  SI (selectivity index), LC50: <0.81
  SI (selectivity index), TGI: 0.78
Melanoma subpanel; [2]
  GI50: 2.63 µM
Melanoma subpanel; [3]
  CC50: 52.3 µM
Melanoma subpanel; Melanoma panel mean
  MG_MID, TGI: 14.4 µM
Melanoma subpanel; [8]
  SI (selectivity index), GI50: 1.06
  SI (selectivity index), LC50: 1.54
  SI (selectivity index), TGI: 2.23
[1]; [2]
  GI50: 2.93 µM
[1]; [3]
  CC50: 74 µM
[1]; Non-Small Cell Lung Cancer panel mean
  MG_MID, TGI: 26.6 µM
[1]; [9]
  SI (selectivity index), GI50: 0.96
  SI (selectivity index), LC50: 1.09
  SI (selectivity index), TGI: 1.21
Ovarian Cancer subpanel; [2]
  GI50: 3.32 µM
Ovarian Cancer subpanel; [3]
  CC50: > 100 µM
Ovarian Cancer subpanel; Ovarian Cancer panel mean
  MG_MID, TGI: 42.5 µM
Ovarian Cancer subpanel; [10]
  SI (selectivity index), GI50: 0.84
  SI (selectivity index), LC50: <0.81
  SI (selectivity index), TGI: 0.76
Prostate Cancer subpanel; [2]
  GI50: 1.48 µM
Prostate Cancer subpanel; [3]
  CC50: 75.1 µM
Prostate Cancer subpanel; [11]
  SI (selectivity index), GI50: 1.89
  SI (selectivity index), LC50: 1.08
  SI (selectivity index), TGI: 0.71
Renal Cancer subpanel; [2]
  GI50: 2.85 µM
Renal Cancer subpanel; [3]
  CC50: 69.1 µM
Renal Cancer subpanel; Renal Cancer panel mean
  MG_MID, TGI: 24.1 µM
Renal Cancer subpanel; [12]
  SI (selectivity index), GI50: 0.98
  SI (selectivity index), LC50: 1.17
  SI (selectivity index), TGI: 1.34
RPMI-8226; GI50 (normal blood lymphocyte)/GI50 (RPMI-8226)
  TI (Therapeutic Index): >10,000
RPMI-8226; RPMI-8226 (Leukemia), 48 h, SRB
  TGI: 0.264 µM
EKVX
  GI50: 2.37 µM
EKVX; read-out: LC50
  CC50: > 100 µM
HOP-62
  GI50: 2.61 µM
HOP-62; read-out: LC50
  CC50: 11.6 µM
LOX IMVI
  GI50: 1.17 µM
LOX IMVI; read-out: LC50
  CC50: > 100 µM
HT-29; HT-29 (Colon Cancer), 48 h, SRB
  TGI: > 100 µM
HT-29; Homo sapiens, HT-29, 48 h
  GI50: 2.14 µM
HT-29; Homo sapiens, HT-29, 48 h, read-out: LC50
  CC50: > 100 µM
M14; Homo sapiens, M14, 48 h
  GI50: 1.9 µM
M14; Homo sapiens, M14, 48 h, read-out: LC50
  CC50: 7.32 µM
M14; M14 (Melanoma), 48 h, SRB
  TGI: 3.73 µM
OVCAR-4; Homo sapiens, OVCAR-4, 48 h
  GI50: 2.63 µM
OVCAR-4; Homo sapiens, OVCAR-4, 48 h, read-out: LC50
  CC50: > 100 µM
OVCAR-4; OVCAR-4 (Ovarian Cancer), 48 h, SRB
  TGI: > 100 µM
NCI/ADR-Res; Homo sapiens, NCI/ADR-RES
  GI50: 2.17 µM
NCI/ADR-Res; Homo sapiens, NCI/ADR-RES, read-out: LC50
  CC50: > 100 µM
NCI/ADR-Res; NCI/ADR-Res (Breast Cancer), SRB
  TGI: 6.13 µM
